The results in this text go back to patent US11534441B2, “MAP4K1 inhibitors” (Blueprint Medicines Corporation, priority 2020, dated 2022).

Each structure is given as a SMILES string. pEC50, pIC50: −log10 of the molar value.

In test [1] the test system is expanded CD3+ T cells. The experiment in a line: T cell enhancement of cytokines: IL2 measurement (HTRF) in expanded CD3+ T cells stimulated with anti-CD3/anti-CD28. The format is cell-based, human. Particulars: IL-2 measurement. In outline: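 Healthy-donor T cells (95-98% CD3+) expanded 10-14 days with IL2 and CD3/CD28 beads, then cryopreserved. 100K cells/well in X-VIVO 10 serum-free medium were stimulated with plate-bound anti-CD3 plus soluble anti-CD28 with compound at various concentrations for 24 h. Secreted IL2 measured by HTRF after 24 h antibody incubation.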
A general note: TR-FRET usually uses a lanthanide donor and a delayed reading to cut background.

The target in test [2] is MAP4K1 (HPK1) (Homo sapiens (Human), UniProt Q92918). The test can be described thus: MAP4K1 (HPK1) biochemical enzymatic activity, electrophoretic mobility shift (EZReader 2), ATP at APPKM (26 μM). The procedure, abridged: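 Phosphorylated and unphosphorylated peptide were separated electrophoretically, and the product/substrate peak ratio served as readout. Reactions held 0.1-15 nM HPK1, 1.5 μM fluorescent peptide and 26 μM ATP (apparent Km) in pH 7.5 HEPES buffer with MgCl2 and DTT. Compounds were tested as 4-fold, 10-point dilutions in 1% DMSO for 60-180 min at 25° C, then quenched with EDTA.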
(Mobility shift assays separate free from complexed probe on a gel.)

[3] abbreviates: Homo sapiens, T-cell, class designation.
[4] abbreviates: Homo sapiens, T-cell, numeric value.

Chain of MAP4K1 (HPK1) (Q92918 whole entry): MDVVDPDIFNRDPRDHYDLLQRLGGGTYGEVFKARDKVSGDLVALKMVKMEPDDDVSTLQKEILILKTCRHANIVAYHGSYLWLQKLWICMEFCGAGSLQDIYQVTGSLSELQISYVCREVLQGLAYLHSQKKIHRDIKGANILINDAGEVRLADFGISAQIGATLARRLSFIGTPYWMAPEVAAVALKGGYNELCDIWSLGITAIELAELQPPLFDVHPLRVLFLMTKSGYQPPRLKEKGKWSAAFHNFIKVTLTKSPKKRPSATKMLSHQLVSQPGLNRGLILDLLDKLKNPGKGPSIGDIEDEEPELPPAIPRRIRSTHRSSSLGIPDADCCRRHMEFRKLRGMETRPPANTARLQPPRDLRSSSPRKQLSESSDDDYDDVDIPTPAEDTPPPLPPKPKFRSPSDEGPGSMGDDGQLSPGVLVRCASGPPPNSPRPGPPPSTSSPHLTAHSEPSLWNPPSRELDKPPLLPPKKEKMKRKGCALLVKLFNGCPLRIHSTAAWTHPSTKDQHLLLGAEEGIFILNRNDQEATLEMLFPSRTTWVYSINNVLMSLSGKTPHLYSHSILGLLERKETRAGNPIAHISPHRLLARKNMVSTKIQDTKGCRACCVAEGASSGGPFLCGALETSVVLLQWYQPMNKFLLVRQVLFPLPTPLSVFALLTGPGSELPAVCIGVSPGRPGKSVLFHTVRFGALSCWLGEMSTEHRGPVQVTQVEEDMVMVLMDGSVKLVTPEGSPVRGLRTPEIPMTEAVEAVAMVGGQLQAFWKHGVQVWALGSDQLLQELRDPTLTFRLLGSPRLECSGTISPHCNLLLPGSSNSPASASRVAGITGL

One may read the pEC50 as −log10 of the EC50, conventionally taken in molar units. One may read the pIC50 as the IC50 on a negative log10 scale, so that one unit is a factor of ten. For the molecule `CC1(C)Cc2nc(Nc3cc4c(C(C)(C)NC5COC5)cnc(OC5CC5)c4cn3)ccc2C(=O)O1` [Compound 183], the pEC50 in test [1] (setting [3]) was greater than 7.46; in test [1] (setting [4]), 8.51. In addition, the pIC50 in test [2] (class designation) was less than 8.00; in test [2] (numeric value), 7.58.

For the molecule `COC[C@@](C)(N)c1cnc(OC)c2cnc(Nc3ccc4c(n3)[C@@H](C)[C@H](C)OC4=O)cc12` [Compound 188], the pEC50 in test [1] (class designation) is greater than 7.46; in test [1] (numeric value) it was 8.17. The pIC50 in test [2] (class designation) was greater than 9.52; in test [2] (numeric value), 10.05.

As to `COC[C@@](C)(N)c1cnc(OC2CC2)c2cnc(Nc3ccc4c(n3)[C@@H](C)C(C)(C)OC4=O)cc12` [Compound 189], the negative-log EC50 (pEC50) in test [1] (class designation) is 7.26 to 7.35; in test [1] (numeric value), 7.34. Besides, the figures for the pIC50 in test [2] (class designation) and in test [2] (numeric value) were greater than 9.52 and 9.80, respectively.

On to `CC[C@](C)(N)c1cnc(OC2CC2)c2cnc(Nc3ccc4c(n3)C3(CC3)C(C)(C)OC4=O)cc12` [Compound 196], for which the pEC50 is greater than 7.46 in test [1] (class designation) and 7.72 in test [1] (numeric value). The negative logarithm of the IC50 (pIC50) in test [2] (class designation) was greater than 9.52; in test [2] (numeric value), 10.00.

For the molecule `CC[C@@H](N)c1cnc(OC)c2cnc(Nc3ccc4c(n3)[C@@H](C)C(C)(C)OC4=O)cc12` [Compound 204], the values for the pEC50 in test [1] (class designation) and in test [1] (numeric value) were greater than 7.46 and 7.53, respectively. Further, the pIC50 in test [2] (class designation) was greater than 9.52; in test [2] (numeric value), 9.66.

For `COC[C@@](C)(N)c1cnc(C)c2cnc(Nc3ccc4c(n3)[C@@H](C)[C@H](C)OC4=O)cc12` [Compound 205], the pEC50 in test [1] (setting [3]) was less than 7.26; in test [1] (setting [4]) it was 6.95. Further, the negative logarithm of the IC50 (pIC50) in test [2] (class designation) was 9.00 to 9.51; in test [2] (numeric value) it was 9.46.

On to `COC[C@@H](N)c1cnc(OC)c2cnc(Nc3ccc4c(n3)[C@@H](C)C(C)(C)OC4=O)cc12` [Compound 208], for which the pEC50 was less than 7.26 in test [1] (class designation) and 7.02 in test [1] (numeric value). In addition, the pIC50 in test [2] (class designation) was 9.00 to 9.51; in test [2] (numeric value), 9.15.

With `CC[C@@H](N)c1cnc(C)c2cnc(Nc3ccc4c(n3)[C@@H](C)C(C)(C)OC4=O)cc12` [Compound 210], the pEC50 in test [1] (class designation) is less than 7.26; in test [1] (numeric value), 6.75. In addition, the pIC50 in test [2] (class designation) is greater than 9.52; in test [2] (numeric value), 9.64.
